Laboratory results reported in patent US20160015701A1, “Methods of Treating Acute Kidney Injury” (ABBIVE INC., priority 2013, published 2016).
Where two headings read alike, the source gives them in different places.

Columns and labels:
ETB receptor = conditions: read-out: K1 of ET-1/ETB binding affinity; cited from earlier work
[1] = tested on: unilateral ischemic renal injury; experiment: unilateral ischemia/reperfusion (I/R) injury protocol, renal weight two weeks post ischemia; type: in vivo, CD-1 mice
Protocol: (§1) All experiments were performed using male 30-45 gram CD-1 mice, obtained from Charles River Laboratories, Wilmington, Mass. They were housed under routine vivarium conditions with free food and water access. Surgeries were conducted under deep pentobarbital anesthesia (40-50 mg/Kg IP). Post surgical analgesia was provided with buprenorphine (0.1 mg/Kg IP) at the completion of surgery. All procedures were approved by the institution's IACUC, in accordance with NIH guidelines.
In this example, ET-1 and ETA/ETB receptor expression were quantified following ischemic renal injury, and ET-1 gene chromatin remodeling and RNA polymerase II (Pol II) binding were evaluated. Ten mice were subjected to a midline laparotomy, and the left renal pedicles were exposed and occluded ×30 min using atraumatic microvascular clamps. Uniform ischemia was confirmed by the development of total kidney cyanosis (indicating hypoxia). Body temperature was monitored with an intra-abdominal thermometer and maintained at 37° C. with an external heating source. At the completion of the ischemic period, the vascular clamp was removed, and uniform reperfusion was confirmed by loss of kidney cyanosis. The abdominal incision was then sutured in two layers using 3-0 chromic suture. The mice were then allowed to recover from anesthesia. Ten additional mice, subjected to the same surgical procedure, but not to renal pedicle occlusion, served as sham-operated controls.
This example studied whether atrasentan treatment, during pre- and post-ischemic period, confers renal protection. Eighteen mice were subjected to a unilateral ischemia/reperfusion (I/R) protocol as described in Example 1. […] Atrasentan was administered in the drinking water (25 μg/mL; designed to equate with a dose of ˜5 mg/Kg/day). Atrasentan dosing was started one day before surgery, and continued throughout the remainder of the experiment. Fresh atrasentan was provided ˜2-3× per week for two weeks. The remaining nine mice received only free food and water access, serving as controls.
The degree of post-ischemic loss of renal mass was assessed by comparing the weights of kidneys from sham operated mice, control post-ischemic mice, and post ischemic mice that had received atrasentan treatment. Finally, frontal sections of post-ischemic kidneys were taken from five control mice and five atrasentan-treated mice, fixed in 10% buffered formalin, and used for subsequent histochemical analyses.
This example studies whether atrasentan treatment, restricted to the post-ischemic period, confers renal protection. This experiment was designed to help resolve the issue of when atrasentan was inducing its protective effect. To this end, the same protocol described in Example 2 was repeated, but atrasentan administration was commenced 24 hours after the induction of ischemic damage). At the end of two weeks, the mice were re-anesthetized and the left and right kidneys were weighed. The degree of post ischemic renal weight reduction (the primary endpoint of the above described experiment) was determined. […]
This example studies the potential effects of atrasentan on renal growth independent of ischemic injury. To ascertain whether atrasentan treatment might impact renal growth or size independent of an effect on renal ischemia/post ischemic injury, renal weights of the contralateral (non ischemic) kidneys from the Example 2 were assessed and compared to ischemic kidneys with and without treatment with atrasentan. […]

post ischemic kidneys = experiment: renal histology (H and E injury score, KI-67 staining) of two week post ischemic kidneys; type: in vivo, CD-1 mice; conditions: pre+post atrasentan
Protocol: Calculations and Statistics: All values are presented as means±1 SEM. Statistical comparisons were performed by unpaired Student's t test. The mRNA data were generated by competitive RT-PCR, with the results for any given message being expressed as a ratio to the simultaneously determined GAPDH product, used as a housekeeping gene. ChIP data, generated with real time PCR (qPCR) are presented as ng/mg total applied chromatin. The severity of histologic injury, as determined by studying H and E stained kidney sections, was assessed by blinded scoring of slides of 2 week post ischemic kidneys from 5 Atrasentan treated (24 hrs pre-ischemia, and 2 weeks post-ischemia) mice, and from 5 non Atrasentan treated post ischemic controls. […]
This example examined renal histology on kidneys from five control mice and five atrasentan-treated mice from Example 2. […] In addition, renal tubular cell proliferation was assessed by immunohistochemical staining for KI-67, a nuclear protein marker of all active cell cycle phases (G1, S, G2, mitosis; but not Go). (Scholzen T, et al., The Ki-67 protein: from the known and the unknown. J Cell Physiol. 182: 311-322, 2000.) The percent of KI-67 cells was determined on whole kidney sections, captured with ScanScope AT (Aperio, Vista, Calif.), and then analyzed with Nuclear Algorithm Spectrum software (version 11.1.1.764; Aperio).

[2] = tested on: proximal tubule (HK-2) cells
Protocol: After eighteen hours of incubation, lethal cell injury was assessed by % LDH release.

[3] = tested on: bilateral ischemic renal injury; experiment: bilateral ischemic renal injury, severity at 24 hours post ischemia; type: in vivo, CD-1 mice; conditions: 22.5 min or 25 min bilateral ischemia
Protocol: as §1
This example studies whether atrasentan pre-treatment protects against the acute ischemic injury phase. More particularly, the possibility that atrasentan might mitigate the acute injury phase, and thus, cause a subsequent preservation of renal mass, was explored by subjecting mice to either 22.5 minutes or 25 minutes of bilateral ischemic renal injury in the presence or absence of atrasentan pre-treatment for 24 hours before and for 24 hours after the induction of renal ischemia. […]
The severity of injury was assessed at 24 hours post ischemia by BUN and plasma creatinine concentrations. […] As a second marker of renal injury, renal cortical NGAL mRNA levels were also assessed. Measurement of NGAL mRNA represents a more sensitive biomarker of kidney injury than BUN and Plasma Creatinine measured in FIG. 8 and was measured to investigate the effect of atrasentan on the induction phase of ischemic injury.

Row | Compound | Ki (ETB receptor) | effect on renal parameters measured ([1]; BQ-788 administered both pre- and post-ischemia) | post ischemic kidney weight ([1]; BQ-788 subcutaneously each day from 1 day before surgery, two weeks post ischemia, control ischemia 0.23 grams) | % KI-67 nuclear positivity (post ischemic kidneys; two week post ischemic kidney, control ischemia 11.4±0.8%, normal kidneys 2.4±0.6%) | histologic injury score (semiquantitative 1+ to 4+, least to most severe) (post ischemic kidneys; two weeks post ischemia, control ischemia 3.4±0.3, p<0.01, mean±SEM) | post ischemic loss of renal mass (renal weight) ([1]; atrasentan commenced 24 hours after induction of ischemic damage, two weeks) | post ischemic kidney weight (renal mass) ([1]; atrasentan in drinking water ~5 mg/Kg/day, started one day before 30 min unilateral ischemia and continued two weeks post ischemia, vs normal kidneys) | contralateral (non ischemic) kidney weight, hypertrophic response ([1]; pre+post atrasentan, two weeks, drug vs. no-drug groups) | LDH release ([2]; CAD (antimycin A/Ca ionophore/2-deoxyglucose) + 5 μg atrasentan, 18 hours, CAD alone 22.8±0.2%) | LDH release ([2]; human, 18 h, 5 μg/mL) | severity of AKI by BUN and plasma creatinine concentrations ([3]; atrasentan 24 hours before and 24 hours after, assessed 24 hours post ischemia) | renal cortical NGAL mRNA levels ([3]; atrasentan 24 hours before and after, 24 hours post ischemia)
1 | CCCC[C@@H](NC(=O)[C@@H](Cc1cn(C(=O)OC)c2ccccc12)NC(=O)[C@H](CC(C)(C)C)NC(=O)N1[C@H](C)CCC[C@@H]1C)C(=O)[O-].[Na+] [BQ-788, N-cis-2,6-dimethylpiperidinocarbonyl-L-gamma-methylleucyl-D-1-methoxycarbonyltryptophanyl-D-norleucine] | 0.1 µM | no effect on any of the renal parameters measured | 0.24 grams |  |  |  |  |  |  |  |  | 
2 | CCCCN(CCCC)C(=O)CN1C[C@H](c2ccc3c(c2)OCO3)[C@@H](C(=O)O)[C@@H]1c1ccc(OC)cc1 [atrasentan, (2R,3R,4S)-4-(1,3-benzodioxol-5-yl)-1-[2-(dibutylamino)-2-oxoethyl]-2-(4-methoxyphenyl)pyrrolidine-3-carboxylic acid] |  |  |  | 10.8±1.2% | 1.7±0.4 | completely blocked this loss of renal mass | did not significantly differ from that of normal kidneys | no effect on this hypertrophic response | 23.2±0.3% | 9.0±0.1% | failed to mitigate the severity of AKI | in neither instance did atrasentan decrease these NGAL mRNA increases
